Read-outs that look alike come from different tables or passages of the source.
Tests used:
[1] = target: FLNA pentapeptide of SEQ ID NO: 1 (Bn-VAKGL) (Homo sapiens, UniProt P21333); experiment: FITC-NLX-based FLNA screening assay (inhibition of FITC-naloxone binding to Bn-VAKGL on streptavidin plates); conditions: 10 nM FITC-NLX
mu opiate receptor (MOR) = experiment: MOR agonist activity using [35S]GTPγS binding assay in striatal membranes; type: biochemical; conditions: Series C-2; for % DAMGO (0.1 μM) / % DAMGO (1 μM): relative to DAMGO; for % DAMGO + BFNA: 1 μM compound + β-FNA, relative to DAMGO + BFNA
In short: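 Striatal membranes (200 μg) were preincubated 5 min at 30 °C in HEPES pH 7.5 with 100 mM NaCl, 1 mM MgCl2 and 0.5 nM [35S]GTPγS, then 5 min more with 0.1–10 μM compound. Gαo was immunoprecipitated and bound radioactivity counted by scintillation.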

[2] = read-out: Percent Binding Inhibition, FLNA-binding compound 0.01 μM
[3] = read-out: Percent Binding Inhibition, FLNA-binding compound 0.1 μM
[4] = read-out: Percent Binding Inhibition, FLNA-binding compound 1 μM
[5] = 0.1 μM compound, [35S]GTPγS binding to Gαo, striatal membranes
[6] = 1 μM compound, [35S]GTPγS binding to Gαo, striatal membranes
[7] = FLNA-binding compound 0.01 μM, read-out: Percent Binding Inhibition
[8] = FLNA-binding compound 0.1 μM, read-out: Percent Binding Inhibition
[9] = FLNA-binding compound 1 μM, read-out: Percent Binding Inhibition

CC(=O)c1ccc(S(=O)(=O)N2CC(=O)NC23CCNCC3)cc1 [Compound C0086M]
inhibition at 0.01 µM [1, 2]: 37.9%
inhibition at 0.1 µM [1, 3]: 48.1%
inhibition at 1 µM [1, 4]: 53.4%
% DAMGO (0.1 μM) (mu opiate receptor (MOR); 0.1 μM compound): 117.5%
MOR agonist activity, percent [35S]GTPγS binding at the stated compound concentration (mu opiate receptor (MOR); [5]): 206.8%
MOR agonist activity, percent [35S]GTPγS binding at the stated compound concentration (mu opiate receptor (MOR); 1 μM compound + 1 μM β-FNA): 152.3%
% DAMGO + BFNA (mu opiate receptor (MOR)): 692.3%
% DAMGO (1 μM) (mu opiate receptor (MOR); 1 μM compound): 104.9%
MOR agonist activity, percent [35S]GTPγS binding at the stated compound concentration (mu opiate receptor (MOR); [6]): 265.3%

CC(=O)c1ccc(S(=O)(=O)N2CCC3(CC2)NC(=O)CO3)cc1 [Compound C0087M]
inhibition at 0.01 µM [1, 7]: 51.6%
inhibition at 0.1 µM [1, 8]: 57.9%
inhibition at 1 µM [1, 9]: 61.5%
% DAMGO (0.1 μM) (mu opiate receptor (MOR); 0.1 μM compound): 138.9%
MOR agonist activity, percent [35S]GTPγS binding at the stated compound concentration (mu opiate receptor (MOR); [5]): 262.8%
MOR agonist activity, percent [35S]GTPγS binding at the stated compound concentration (mu opiate receptor (MOR); 1 μM compound + 1 μM β-FNA): 142.5%
% DAMGO + BFNA (mu opiate receptor (MOR)): 293.8%
% DAMGO (1 μM) (mu opiate receptor (MOR); 1 μM compound): 132.8%
MOR agonist activity, percent [35S]GTPγS binding at the stated compound concentration (mu opiate receptor (MOR); [6]): 329.6%

COc1ccc(S(=O)(=O)N2CCOC23CCN(C)CC3)cc1 [Compound C0088M]
inhibition at 0.01 µM [1, 2]: 40.1%
inhibition at 0.1 µM [1, 3]: 52.4%
inhibition at 1 µM [1, 4]: 56.1%
% DAMGO (0.1 μM) (mu opiate receptor (MOR); 0.1 μM compound): 160.5%
MOR agonist activity, percent [35S]GTPγS binding at the stated compound concentration (mu opiate receptor (MOR); [5]): 276.3%
MOR agonist activity, percent [35S]GTPγS binding at the stated compound concentration (mu opiate receptor (MOR); 1 μM compound + 1 μM β-FNA): 177.1%
% DAMGO + BFNA (mu opiate receptor (MOR)): 513.3%
% DAMGO (1 μM) (mu opiate receptor (MOR); 1 μM compound): 161.7%
MOR agonist activity, percent [35S]GTPγS binding at the stated compound concentration (mu opiate receptor (MOR); [6]): 355.3%

CCN1CCC2(CC1)OCCN2S(=O)(=O)c1ccc(OC)cc1 [Compound C0089M]
inhibition at 0.01 µM [1, 7]: 40.7%
inhibition at 0.1 µM [1, 8]: 46.1%
inhibition at 1 µM [1, 9]: 51.2%
% DAMGO (0.1 μM) (mu opiate receptor (MOR); 0.1 μM compound): 136.3%
MOR agonist activity, percent [35S]GTPγS binding at the stated compound concentration (mu opiate receptor (MOR); [5]): 234.5%
MOR agonist activity, percent [35S]GTPγS binding at the stated compound concentration (mu opiate receptor (MOR); 1 μM compound + 1 μM β-FNA): 81.9%
% DAMGO + BFNA (mu opiate receptor (MOR)): 237.4%
% DAMGO (1 μM) (mu opiate receptor (MOR); 1 μM compound): 134.4%
MOR agonist activity, percent [35S]GTPγS binding at the stated compound concentration (mu opiate receptor (MOR); [6]): 295.3%

COc1ccc(S(=O)(=O)N2CCOC23CCN(CC2CC2)CC3)cc1 [Compound C0090M]
inhibition at 0.01 µM [1, 2]: 42.5%
inhibition at 0.1 µM [1, 3]: 52.5%
inhibition at 1 µM [1, 4]: 55.8%
% DAMGO (0.1 μM) (mu opiate receptor (MOR); 0.1 μM compound): 137.7%
MOR agonist activity, percent [35S]GTPγS binding at the stated compound concentration (mu opiate receptor (MOR); [5]): 237.0%
MOR agonist activity, percent [35S]GTPγS binding at the stated compound concentration (mu opiate receptor (MOR); 1 μM compound + 1 μM β-FNA): 41.0%
% DAMGO + BFNA (mu opiate receptor (MOR)): 118.8%
% DAMGO (1 μM) (mu opiate receptor (MOR); 1 μM compound): 155.2%
MOR agonist activity, percent [35S]GTPγS binding at the stated compound concentration (mu opiate receptor (MOR); [6]): 341.0%

C=CCN1CCC2(CC1)OCCN2S(=O)(=O)c1ccc(OC)cc1 [Compound C0091M]
inhibition at 0.01 µM [1, 2]: 38.1%
inhibition at 0.1 µM [1, 3]: 39.8%
inhibition at 1 µM [1, 4]: 46.3%
% DAMGO (0.1 μM) (mu opiate receptor (MOR); 0.1 μM compound): 118.1%
MOR agonist activity, percent [35S]GTPγS binding at the stated compound concentration (mu opiate receptor (MOR); [5]): 207.9%
MOR agonist activity, percent [35S]GTPγS binding at the stated compound concentration (mu opiate receptor (MOR); 1 μM compound + 1 μM β-FNA): 80.8%
% DAMGO + BFNA (mu opiate receptor (MOR)): 367.3%
% DAMGO (1 μM) (mu opiate receptor (MOR); 1 μM compound): 108.5%
MOR agonist activity, percent [35S]GTPγS binding at the stated compound concentration (mu opiate receptor (MOR); [6]): 274.4%

CC(=O)c1ccc(S(=O)(=O)N2CCOC23CCN(C)CC3)cc1 [Compound C0093M]
inhibition at 0.01 µM [1, 2]: 44.8%
inhibition at 0.1 µM [1, 3]: 49.9%
inhibition at 1 µM [1, 4]: 53.5%
% DAMGO (0.1 μM) (mu opiate receptor (MOR); 0.1 μM compound): 81.3%
MOR agonist activity, percent [35S]GTPγS binding at the stated compound concentration (mu opiate receptor (MOR); [5]): 140.0%
MOR agonist activity, percent [35S]GTPγS binding at the stated compound concentration (mu opiate receptor (MOR); 1 μM compound + 1 μM β-FNA): 44.0%
% DAMGO + BFNA (mu opiate receptor (MOR)): 127.5%
% DAMGO (1 μM) (mu opiate receptor (MOR); 1 μM compound): 96.4%
MOR agonist activity, percent [35S]GTPγS binding at the stated compound concentration (mu opiate receptor (MOR); [6]): 211.8%

CCN1CCC2(CC1)OCCN2S(=O)(=O)c1ccc(C(C)=O)cc1 [Compound C0094M]
inhibition at 0.01 µM [1, 7]: 43%
inhibition at 0.1 µM [1, 8]: 52.8%
inhibition at 1 µM [1, 9]: 57.5%
% DAMGO (0.1 μM) (mu opiate receptor (MOR); 0.1 μM compound): 100.2%
MOR agonist activity, percent [35S]GTPγS binding at the stated compound concentration (mu opiate receptor (MOR); [5]): 172.5%
MOR agonist activity, percent [35S]GTPγS binding at the stated compound concentration (mu opiate receptor (MOR); 1 μM compound + 1 μM β-FNA): 115.3%
% DAMGO + BFNA (mu opiate receptor (MOR)): 334.2%
% DAMGO (1 μM) (mu opiate receptor (MOR); 1 μM compound): 119.9%
MOR agonist activity, percent [35S]GTPγS binding at the stated compound concentration (mu opiate receptor (MOR); [6]): 263.5%

— patent US10363239B2, “Method for inhibiting growth of cancer cells” (Pain Therapeutics, Inc., priority 2013, dated 2019)
